The values below come from patent publication US9873680B2 (Gilead Sciences, Inc., priority 2014, dated 2018).

The subject of one data set is HIV-IIIb. Put plainly: Test A: Antiviral Assay in MT4 Cells. In kind it is cell-based, HIV-1. In outline: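 Readout was CellTiter-Glo luminescence after 10 min room-temperature lysis, taken 5 days after plating at 37 °C. The 2000 MT-4 cells per well, mixed 1 h beforehand with HIV-IIIb (m.o.i. 0.003), went straight onto the diluted compound.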
Data set [1] is described as follows: Test B: Cytotoxicity Assay. In kind it is cell-based. To be noted: human, uninfected MT-4 cells, CellTiter-Glo. The procedure:
Test B: Cytotoxicity Assay Compound cytotoxicity and the corresponding CC50 values was determined using the same protocol as described in the antiviral assay (Test A) except that uninfected cells were used.
A general note: Cellular ATP, detected with luciferase, serves as a proxy for viable cell number.

Where [2] appears, read: Human immunodeficiency virus 1, MT4, 120 h, 0.2 μM drug concentration, MT-4 cells infected with HIV-IIIb, 5 days, values normalized to 100%, average over time, read-out: % inhibition at 0.2 μM (percent inhibition of virus-induced cell killing).
Where [3] appears, read: Human immunodeficiency virus 1, IIIB, MT4, 120 h, read-out: % inhibition at 0.2 μM (percent inhibition of virus-induced cell killing).

Read-outs that look alike come from different tables or passages of the source.

What is called inhibition is the relative decrease from the control value, in per cent. By CC50 is commonly meant the concentration at which the toxic effect on the cells reaches its halfway point. The low end stands for greater toxicity to the cells, the high end for lower toxicity to the cells.

For `Cn1nc(NS(C)(=O)=O)c2c(Cl)ccc(-c3ccc(C#C[C@]4(C)CNCCO4)nc3[C@H](Cc3cc(F)cc(F)c3)NC(=O)Cn3nc(C(F)F)c4c3C(F)(F)[C@@H]3C[C@H]43)c21` [Compound 84, N—((S)-1-(3-(4-chloro-1-methyl-3-(methylsulfonamido)-1H-indazol-7-yl)-6-(((R)-2-methylmorpholin-2-yl)ethynyl)pyridin-2-yl)-2-(3,5-difluorophenyl)ethyl)-2-((3bS,4aR)-3-(difluoromethyl)-5,5-difluoro-3b,4,4a,5-tetrahydro-1H-cyclopropa[3,4]cyclopenta[1,2-c]pyrazol-1-yl)acetamide], the inhibition at 0.2 µM in the data set on HIV-IIIb (setting [2]) is 88%. The molecule also showed a CC50 at 5 days in data set [1] of 6.9 µM.

`Cn1nc(O)c2c(Cl)ccc(-c3ccc(C#CC4(O)CCOCC4)nc3[C@H](Cc3cc(F)cc(F)c3)NC(=O)Cn3nc(C(F)(F)F)c4c3CCCC4)c21` [Compound 57, (S)—N-(1-(3-(4-chloro-3-hydroxy-1-methyl-1H-indazol-7-yl)-6-((4-hydroxytetrahydro-2H-pyran-4-yl)ethynyl)pyridin-2-yl)-2-(3,5-difluorophenyl)ethyl)-2-(3-(trifluoromethyl)-4,5,6,7-tetrahydro-1H-indazol-1-yl)acetamide]: the inhibition at 0.2 µM in the data set with HIV-IIIb (setting [3]) worked out at 100%. In data set [1], this molecule gave a CC50 at 5 days of 21 µM.

`Cn1nc(NS(C)(=O)=O)c2c(Cl)ccc(-c3ccc(C#CC4CCCN4)nc3[C@H](Cc3cc(F)cc(F)c3)NC(=O)Cn3nc(C(F)(F)F)c4c3C(F)(F)[C@@H]3C[C@H]43)c21` (stereo partly drawn) [Compound 43H, N-((1S)-1-(3-(4-chloro-1-methyl-3-(methylsulfonamido)-1H-indazol-7-yl)-6-(pyrrolidin-2-ylethynyl)pyridin-2-yl)-2-(3,5-difluorophenyl)ethyl)-2-((3bS,4aR)-5,5-difluoro-3-(trifluoromethyl)-3b,4,4a,5-tetrahydro-1H-cyclopropa[3,4]cyclopenta[1,2-c]pyrazol-1-yl)acetamide]: the inhibition at 0.2 µM in the data set on HIV-IIIb (setting [2]) came to 99%. In data set [1], this molecule came in with a CC50 at 5 days of 4.34 µM.

Take `CN1CCN(CC#Cc2ccc(-c3cccc4c(NS(C)(=O)=O)nn(C)c34)c([C@H](Cc3cc(F)cc(F)c3)NC(=O)Cn3nc(C(F)(F)F)c4c3C(F)(F)[C@@H]3C[C@H]43)n2)CC1` [Compound 32, 2-((3bS,4aR)-5,5-difluoro-3-(trifluoromethyl)-3b,4,4a,5-tetrahydro-1H-cyclopropa[3,4]cyclopenta[1,2-c]pyrazol-1-yl)-N—((S)-2-(3,5-difluorophenyl)-1-(3-(1-methyl-3-(methylsulfonamido)-1H-indazol-7-yl)-6-(3-(4-methylpiperazin-1-yl)prop-1-yn-1-yl)pyridin-2-yl)ethyl)acetamide]: in the data set with HIV-IIIb (setting [2]), the inhibition at 0.2 µM worked out at 95%. The molecule also had a CC50 at 5 days in data set [1] of 8.53 µM.

As for `Cn1nc(NS(C)(=O)=O)c2c(Cl)ccc(-c3ccc(C#CC4(O)CCOC4)nc3[C@H](Cc3cc(F)cc(F)c3)NC(=O)Cn3nc(C(F)(F)F)c4c3C(F)(F)[C@@H]3C[C@H]43)c21` (stereo partly drawn) [Compound 46, N-((1S)-1-(3-(4-chloro-1-methyl-3-(methylsulfonamido)-1H-indazol-7-yl)-6-((3-hydroxytetrahydrofuran-3-yl)ethynyl)pyridin-2-yl)-2-(3,5-difluorophenyl)ethyl)-2-((3bS,4aR)-5,5-difluoro-3-(trifluoromethyl)-3b,4,4a,5-tetrahydro-1H-cyclopropa[3,4]cyclopenta[1,2-c]pyrazol-1-yl)acetamide], in the data set on HIV-IIIb (setting [2]), the inhibition at 0.2 µM turned out to be 96%. Moreover, it took 17.6 µM to reach half-maximal cytotoxicity in data set [1] (CC50 at 5 days).

Take `NC(=O)c1cc(-c2ccc(C#CC3(O)CCOCC3)nc2[C@H](Cc2cc(F)cc(F)c2)NC(=O)Cn2nc(C(F)(F)F)c3c2C(F)(F)[C@@H]2C[C@H]32)ccc1F` [Compound 35, 5-(2-((S)-1-(2-((3bS,4aR)-5,5-difluoro-3-(trifluoromethyl)-3b,4,4a,5-tetrahydro-1H-cyclopropa[3,4]cyclopenta[1,2-c]pyrazol-1-yl)acetamido)-2-(3,5-difluorophenyl)ethyl)-6-((4-hydroxytetrahydro-2H-pyran-4-yl)ethynyl)pyridin-3-yl)-2-fluorobenzamide]: the inhibition at 0.2 µM in the data set with HIV-IIIb (Human immunodeficiency virus 1, IIIB, MT4, 0.2 μM drug concentration, comparison with previously published compounds, read-out: Response at 0.2 μM (percent inhibition of virus-induced cell killing)) came to 86%; in the data set with HIV-IIIb (setting [2]), 86%. In the data set on HIV-IIIb (Human immunodeficiency virus 1, IIIB, MT4, 2 μM drug concentration, comparison with previously published compounds, read-out: Response at 2 μM (percent inhibition of virus-induced cell killing)), the inhibition at 2 µM is 86%. In data set [1], this molecule showed a CC50 at 5 days of 10.1 µM.

For `Cn1nc(NS(C)(=O)=O)c2c(Cl)ccc(-c3ccc(C#CC4(O)CCOCC4)nc3[C@H](Cc3cc(F)cc(F)c3)NC(=O)Cn3nc(C(F)F)c4c3C(F)(F)[C@@H]3C[C@H]43)c21` [Compound 40, N—((S)-1-(3-(4-chloro-1-methyl-3-(methylsulfonamido)-1H-indazol-7-yl)-6-((4-hydroxytetrahydro-2H-pyran-4-yl)ethynyl)pyridin-2-yl)-2-(3,5-difluorophenyl)ethyl)-2-((3bS,4aR)-3-(difluoromethyl)-5,5-difluoro-3b,4,4a,5-tetrahydro-1H-cyclopropa[3,4]cyclopenta[1,2-c]pyrazol-1-yl)acetamide], the inhibition at 0.2 µM in the data set with HIV-IIIb (setting [2]) amounted to 96%. In addition, in data set [1], the CC50 at 5 days was 17 µM.

Take `Cn1nc(NS(C)(=O)=O)c2c(Cl)ccc(-c3ccc(C#CC(C)(C)c4ncc[nH]4)nc3[C@H](Cc3cc(F)cc(F)c3)NC(=O)Cn3nc(C(F)F)c4c3C(F)(F)[C@@H]3C[C@H]43)c21` [Compound 91F, N—((S)-1-(6-(3-(1H-imidazol-2-yl)-3-methylbut-1-yn-1-yl)-3-(4-chloro-1-methyl-3-(methylsulfonamido)-1H-indazol-7-yl)pyridin-2-yl)-2-(3,5-difluorophenyl)ethyl)-2-((3bS,4aR)-3-(difluoromethyl)-5,5-difluoro-3b,4,4a,5-tetrahydro-1H-cyclopropa[3,4]cyclopenta[1,2-c]pyrazol-1-yl)acetamide]: the inhibition at 0.2 µM in the data set with HIV-IIIb (setting [2]) was determined as 98%. In data set [1], this molecule showed a CC50 at 5 days of 14.6 µM.

For the molecule `O=C(Cn1nc(C(F)F)c2c1C(F)(F)CCC2(F)F)N[C@@H](Cc1cc(F)cc(F)c1)c1nc(C#Cc2ccccc2)ncc1-c1ccc2c(c1)C(=O)NC2` [Compound 8, (S)-2-(3-(difluoromethyl)-4,4,7,7-tetrafluoro-4,5,6,7-tetrahydro-1H-indazol-1-yl)-N-(2-(3,5-difluorophenyl)-1-(5-(3-oxoisoindolin-5-yl)-2-(phenylethynyl)pyrimidin-4-yl)ethyl)acetamide], the inhibition at 0.2 µM in the data set with HIV-IIIb (setting [3]) is 102%. Also, in data set [1], the CC50 at 5 days was above 53.2 µM.

With `Cn1nc(NS(C)(=O)=O)c2c(Cl)ccc(-c3ccc(C#C[C@@H]4COC(=O)N4)nc3[C@H](Cc3cc(F)cc(F)c3)NC(=O)Cn3nc(C(F)F)c4c3C(F)(F)[C@@H]3C[C@H]43)c21` [Compound 97C, N—((S)-1-(3-(4-chloro-1-methyl-3-(methylsulfonamido)-1H-indazol-7-yl)-6-(((R)-2-oxooxazolidin-4-yl)ethynyl)pyridin-2-yl)-2-(3,5-difluorophenyl)ethyl)-2-((3bS,4aR)-3-(difluoromethyl)-5,5-difluoro-3b,4,4a,5-tetrahydro-1H-cyclopropa[3,4]cyclopenta[1,2-c]pyrazol-1-yl)acetamide], the inhibition at 0.2 µM in the data set on HIV-IIIb (setting [2]) worked out at 89%. The CC50 at 5 days in data set [1] worked out at 15.2 µM.

For the molecule `CN1CC(NC(C)(C)C#Cc2ccc(-c3ccc(Cl)c4c(NS(C)(=O)=O)nn(C)c34)c([C@H](Cc3cc(F)cc(F)c3)NC(=O)Cn3nc(C(F)(F)F)c4c3C(F)(F)[C@@H]3C[C@H]43)n2)C1` [Compound 42, N—((S)-1-(3-(4-chloro-1-methyl-3-(methylsulfonamido)-1H-indazol-7-yl)-6-(3-methyl-3-((1-methylazetidin-3-yl)amino)but-1-yn-1-yl)pyridin-2-yl)-2-(3,5-difluorophenyl)ethyl)-2-((3bS,4aR)-5,5-difluoro-3-(trifluoromethyl)-3b,4,4a,5-tetrahydro-1H-cyclopropa[3,4]cyclopenta[1,2-c]pyrazol-1-yl)acetamide], the inhibition at 0.2 µM in the data set on HIV-IIIb (setting [2]) came to 90%. Besides, the midpoint of cytotoxicity in data set [1], the CC50 at 5 days, lay at 2.77 µM.

As for `Cn1nc(NS(C)(=O)=O)c2c(Cl)ccc(-c3ccc(C#CC4CCCNC4)nc3[C@H](Cc3cc(F)cc(F)c3)NC(=O)Cn3nc(C(F)(F)F)c4c3C(F)(F)[C@@H]3C[C@H]43)c21` (stereo partly drawn) [Compound 73, N-((1S)-1-(3-(4-chloro-1-methyl-3-(methylsulfonamido)-1H-indazol-7-yl)-6-(piperidin-3-ylethynyl)pyridin-2-yl)-2-(3,5-difluorophenyl)ethyl)-2-((3bS,4aR)-5,5-difluoro-3-(trifluoromethyl)-3b,4,4a,5-tetrahydro-1H-cyclopropa[3,4]cyclopenta[1,2-c]pyrazol-1-yl)acetamide], in the data set on HIV-IIIb (setting [3]), the inhibition at 0.2 µM is 100%. Besides, the 50% cytotoxic concentration (CC50) at 5 days in data set [1] is 6 µM.

Turning to `CC(=O)N1CCCC1C#Cc1ccc(-c2ccc(Cl)c3c(NS(C)(=O)=O)nn(C)c23)c([C@H](Cc2cc(F)cc(F)c2)NC(=O)Cn2nc(C(F)(F)F)c3c2C(F)(F)[C@@H]2C[C@H]32)n1` (stereo partly drawn) [Compound 55, N-((1S)-1-(6-((1-acetylpyrrolidin-2-yl)ethynyl)-3-(4-chloro-1-methyl-3-(methylsulfonamido)-1H-indazol-7-yl)pyridin-2-yl)-2-(3,5-difluorophenyl)ethyl)-2-((3bS,4aR)-5,5-difluoro-3-(trifluoromethyl)-3b,4,4a,5-tetrahydro-1H-cyclopropa[3,4]cyclopenta[1,2-c]pyrazol-1-yl)acetamide], in the data set with HIV-IIIb (setting [2]), the inhibition at 0.2 µM was determined as 88%. The same molecule displayed a CC50 at 5 days in data set [1] of 9.94 µM.
